Measurements reported in patent publication US9969724B2, “Factor IXa inhibitors” (Merck Sharp & Dohme Corp., priority 2014, dated 2018).

Target: human factor IXa (Homo sapiens (Human), UniProt P00740)
Experiment: Determination of Inhibitory Activity Against Factor IXa
Format: biochemical
Conditions: Factor IXa enzyme assay human; read-out: FIXa IC50
Description: Inhibitory activity against factor IXa was tested using the substrate SPECTROFLUOR FIXa (american diagnostica inc.; 500 West Avenue, Stamford, Conn. 06902 USA; Pr. No. 299F) and human factor IXa (american diagnostica inc.; Pr. No. 449b). Test substances were dissolved in buffer A (50 mM α,α,α-tris(hydroxymethyl) methylamine (Tris), 100 mM NaCl, 5 mM CaCl2, 15% (v/v) ethylene glycol, pH 8.0) were mixed with factor IXa (0.1 μg/ml final concentration). The enzyme reaction was started by addition of SPECTROFLUOR FIXa (100 μM final concentration). After incubation for 60 minutes at room temperature, the reaction was stopped by the addition of 20% (v/v) acetic acid solution, and then the fluorescence value was measured (Excitation Wavelength: 355 nm, Emission Wavelength; 460 nm) in a microtiter plate reader (ARVO 1420 Multilabel Counter; PerkinElmer).
The IC50 was calculated from a dilution series of the test substance with the aid of the software, Symyx Assay Explorer (Symyx Technologies, Inc.).

human factor IXa, sequence (P00740 227-461): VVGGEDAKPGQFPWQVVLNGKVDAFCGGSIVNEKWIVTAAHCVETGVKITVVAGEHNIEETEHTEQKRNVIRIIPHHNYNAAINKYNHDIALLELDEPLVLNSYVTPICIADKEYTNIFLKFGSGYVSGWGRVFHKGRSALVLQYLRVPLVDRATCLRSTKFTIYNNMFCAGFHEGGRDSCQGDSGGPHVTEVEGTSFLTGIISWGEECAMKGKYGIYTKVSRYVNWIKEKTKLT
human factor IXa, sequence (P00740 47-191 partner): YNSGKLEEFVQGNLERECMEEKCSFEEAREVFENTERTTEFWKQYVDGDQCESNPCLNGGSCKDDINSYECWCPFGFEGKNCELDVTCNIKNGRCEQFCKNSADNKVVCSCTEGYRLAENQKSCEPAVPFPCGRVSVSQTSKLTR

Structure (SMILES) | IC50 [nM]
C[C@H]1CN(c2cccc3c(N)noc23)C[C@]1(C)NC(=O)c1c(Cl)cc(-n2cnnc2)cc1Cl (relative stereo) [Example 7, N-((3R*,4S*)-1-(3-Aminobenzo[d]isoxazol-7-yl)-3,4-dimethylpyrrolidin-3-yl)-2,6-dichloro-4-(4H-1,2,4-triazol-4-yl)benzamide] | ≤ 100
Nc1noc2c(N3C[C@H](NC(=O)c4c(Cl)cc(-n5cnnc5)cc4Cl)[C@@H](O)C3)cccc12 (relative stereo) [Example 8, N-((3S*,4S*)-1-(3-Aminobenzo[d]isoxazol-7-yl)-4-hydroxypyrrolidin-3-yl)-2,6-dichloro-4-(4H-1,2,4-triazol-4-yl)benzamide] | ≤ 100
Nc1noc2c(N3CCC(NC(=O)c4ccc(-n5cnnc5)cc4Cl)C3)cccc12 (stereo not drawn) [Example 1, N-(1-(3-Aminobenzo[d]isoxazol-7-yl)pyrrolidin-3-yl)-2-chloro-4-(4H-1,2,4-triazol-4-yl)benzamide] | ≤ 100
CC1(NC(=O)c2c(Cl)cc(-n3cnnc3)cc2Cl)CCN(c2cccc3c(N)noc23)C1 (stereo not drawn) [Example 2, N-(1-(3-Aminobenzo[d]isoxazol-7-yl)-3-methylpyrrolidin-3-yl)-2,6-dichloro-4-(4H-1,2,4-triazol-4-yl)benzamide] | ≤ 100
Nc1nsc2c(N3CCC(NC(=O)c4c(Cl)cc(-n5cnnc5)cc4Cl)C3)cccc12 (stereo not drawn) [Example 4, N-(1-(3-Aminobenzo[d]isothiazol-7-yl)pyrrolidin-3-yl)-2,6-dichloro-4-(4H-1,2,4-triazol-4-yl)benzamide] | 100 to 1000
Nc1noc2c(N3CCC(NC(=O)c4ccc(-n5cnnc5)cc4Cl)C3)nccc12 (stereo not drawn) [Example 5, N-(1-(3-Aminoisoxazolo[5,4-c]pyridin-7-yl)pyrrolidin-3-yl)-2-chloro-4-(4H-1,2,4-triazol-4-yl)benzamide] | ≤ 100
Cc1cc(N2CCC(NC(=O)c3c(Cl)cc(-n4cnc(C)n4)cc3Cl)C2)c2onc(N)c2c1 (stereo not drawn) [Example 6, N-(1-(3-Amino-5-methylbenzo[d]isoxazol-7-yl)pyrrolidin-3-yl)-2,6-dichloro-4-(3-methyl-1H-1,2,4-triazol-1-yl)benzamide] | ≤ 100
Nc1noc2c(N3CC[C@@H](NC(=O)c4ccc(-n5cnnc5)cc4Cl)C3)cc(Cl)cc12 [Example 10, (R)—N-(1-(3-Amino-5-chlorobenzo[d]isoxazol-7-yl)pyrrolidin-3-yl)-2-chloro-4-(4H-1,2,4-triazol-4-yl)benzamide] | ≤ 100
Cc1cc(N2CC[C@@H](NC(=O)c3ccc(-n4cnnc4)cc3Cl)C2)c2onc(N)c2c1Cl [Example 12, (R)—N-(1-(3-Amino-4-chloro-5-methylbenzo[d]isoxazol-7-yl)pyrrolidin-3-yl)-2-chloro-4-(4H-1,2,4-triazol-4-yl)benzamide] | ≤ 100
Nc1noc2c(N3CC[C@@H](NC(=O)c4ccc(-n5cnnc5)cc4Cl)C3)ccc(F)c12 [Example 13, (R)—N-(1-(3-Amino-4-fluorobenzo[d]isoxazol-7-yl)pyrrolidin-3-yl)-2-chloro-4-(4H-1,2,4-triazol-4-yl)benzamide] | 100 to 1000
Nc1noc2c(N3CC[C@@H](NC(=O)c4ccc(-n5cnnc5)cc4Cl)C3)cc(Cl)c(Cl)c12 [Example 14, (R)—N-(1-(3-Amino-4,5-dichlorobenzo[d]isoxazol-7-yl)pyrrolidin-3-yl)-2-chloro-4-(4H-1,2,4-triazol-4-yl)benzamide] | ≤ 100
Cc1ncn(-c2ccc(C(=O)NC3(C)CCN(c4cc(Cl)cc5c(N)noc45)C3)c(Cl)c2)n1 (stereo not drawn) [Example 15, N-(1-(3-Amino-5-chlorobenzo[d]isoxazol-7-yl)-3-methylpyrrolidin-3-yl)-2-chloro-4-(3-methyl-1H-1,2,4-triazol-1-yl)benzamide] | ≤ 100
Nc1noc2c(N3CC[C@@H](NC(=O)c4ccc(-n5cnc(CO)n5)cc4Cl)C3)cc(Cl)cc12 [Example 16, (R)—N-(1-(3-Amino-5-chlorobenzo[d]isoxazol-7-yl)pyrrolidin-3-yl)-2-chloro-4-(3-(hydroxymethyl)-1H-1,2,4-triazol-1-yl)benzamide] | ≤ 100
Nc1noc2c(N3CC[C@@H](NC(=O)c4ccc(-n5cnc(C6CC6)n5)cc4Cl)C3)cc(Cl)cc12 [Example 17, (R)—N-(1-(3-Amino-5-chlorobenzo[d]isoxazol-7-yl)pyrrolidin-3-yl)-2-chloro-4-(3-cyclopropyl-1H-1,2,4-triazol-1-yl)benzamide] | ≤ 100
Nc1noc2c(N3CC[C@@H](NC(=O)c4ccc(-n5cncn5)cc4F)C3)ccc(Cl)c12 [Example 18, (R)—N-(1-(3-Amino-4-chlorobenzo[d]isoxazol-7-yl)pyrrolidin-3-yl)-2-fluoro-4-(1H-1,2,4-triazol-1-yl)benzamide] | 100 to 1000
Cc1cc(-n2cncn2)ccc1C(=O)N[C@@H]1CCN(c2ccc(Cl)c3c(N)noc23)C1 [Example 19, (R)—N-(1-(3-Amino-4-chlorobenzo[d]isoxazol-7-yl)pyrrolidin-3-yl)-2-methyl-4-(1H-1,2,4-triazol-1-yl)benzamide] | 100 to 1000
Nc1noc2c(N3CC[C@@H](NC(=O)c4ccc(-n5cnc(CCO)n5)cc4Cl)C3)ccc(Cl)c12 [Example 23, (R)—N-(1-(3-Amino-4-chlorobenzo[d]isoxazol-7-yl)pyrrolidin-3-yl)-2-chloro-4-(3-(2-hydroxyethyl)-1H-1,2,4-triazol-1-yl)benzamide] | ≤ 100
Nc1noc2c(N3CC[C@@H](NC(=O)c4ccc(-c5cncc(CO)c5)cc4Cl)C3)ccc(Cl)c12 [Example 25, (R)—N-(1-(3-Amino-4-chlorobenzo[d]isoxazol-7-yl)pyrrolidin-3-yl)-2-chloro-4-(5-(hydroxymethyl)pyridin-3-yl)benzamide] | ≤ 100
Nc1noc2c(N3CC[C@@H](NC(=O)c4ccc(-n5cc(CCO)cn5)cc4Cl)C3)ccc(Cl)c12 [Example 26, (R)—N-(1-(3-Amino-4-chlorobenzo[d]isoxazol-7-yl)pyrrolidin-3-yl)-2-chloro-4-(4-(2-hydroxyethyl)-1H-pyrazol-1-yl)benzamide] | ≤ 100

Other lines, results leading:

IC50 [nM] | Structure (SMILES)
≤ 100 | Nc1noc2c(N3CC[C@@H](NC(=O)c4ccc(-n5cnnc5)cc4Cl)C3)ccc(Cl)c12 [Example 9, (R)—N-(1-(3-Amino-4-chlorobenzo[d]isoxazol-7-yl)pyrrolidin-3-yl)-2-chloro-4-(4H-1,2,4-triazol-4-yl)benzamide]
≤ 100 | Cc1ncn(-c2ccc(C(=O)N[C@@H]3CCN(c4ncc(Cl)c5c(N)noc45)C3)c(Cl)c2)n1 [Example 11, (R)—N-(1-(3-Amino-4-chloroisoxazolo[5,4-c]pyridin-7-yl)pyrrolidin-3-yl)-2-chloro-4-(3-methyl-1H-1,2,4-triazol-1-yl)benzamide]
≤ 100 | Nc1noc2c(N3CC[C@@H](NC(=O)c4ccc(-c5cncnc5)cc4Cl)C3)ncc(Cl)c12 [Example 20, (R)—N-(1-(3-Amino-4-chloroisoxazolo[5,4-c]pyridin-7-yl)pyrrolidin-3-yl)-2-chloro-4-(pyrimidin-5-yl)benzamide]
≤ 100 | COc1ncc(-c2ccc(C(=O)N[C@@H]3CCN(c4ncc(Cl)c5c(N)noc45)C3)c(Cl)c2)cn1 [Example 21, (R)—N-(1-(3-Amino-4-chloroisoxazolo[5,4-c]pyridin-7-yl)pyrrolidin-3-yl)-2-chloro-4-(2-methoxypyrimidin-5-yl)benzamide]
≤ 100 | N#Cc1ncc(-c2ccc(C(=O)N[C@@H]3CCN(c4ncc(Cl)c5c(N)noc45)C3)c(Cl)c2)cn1 [Example 22, (R)—N-(1-(3-Amino-4-chloroisoxazolo[5,4-c]pyridin-7-yl)pyrrolidin-3-yl)-2-chloro-4-(2-cyanopyrimidin-5-yl)benzamide]
≤ 100 | Nc1noc2c(N3CC[C@@H](NC(=O)c4ccc(-n5cncn5)cc4Cl)C3)ncc(Cl)c12 [Example 24, (R)—N-(1-(3-Amino-4-chloroisoxazolo[5,4-c]pyridin-7-yl)pyrrolidin-3-yl)-2-chloro-4-(1H-1,2,4-triazol-1-yl)benzamide]
≤ 100 | Nc1noc2c(N3CC[C@@H](NC(=O)c4ccc(-n5cnc(CCO)c5)cc4Cl)C3)ncc(Cl)c12 [Example 27, (R)—N-(1-(3-Amino-4-chloroisoxazolo[5,4-c]pyridin-7-yl)pyrrolidin-3-yl)-2-chloro-4-(4-(2-hydroxyethyl)-1H-imidazol-1-yl)benzamide]
≤ 100 | Nc1noc2c(N3CC[C@@H](NC(=O)c4ccc(-n5cnnc5C(F)F)cc4Cl)C3)ncc(Cl)c12 [Example 28, (R)—N-(1-(3-Amino-4-chloroisoxazolo[5,4-c]pyridin-7-yl)pyrrolidin-3-yl)-2-chloro-4-(3-(difluoromethyl)-4H-1,2,4-triazol-4-yl)benzamide]
≤ 100 | Nc1noc2c(N3CC[C@@H](NC(=O)c4ccc(-n5cnc6ccccc65)cc4Cl)C3)ncc(Cl)c12 [Example 29, (R)—N-(1-(3-Amino-4-chloroisoxazolo[5,4-c]pyridin-7-yl)pyrrolidin-3-yl)-4-(1H-benzo[d]imidazol-1-yl)-2-chlorobenzamide]
≤ 100 | Nc1noc2c(N3CC[C@@H](NC(=O)c4ccc(-c5ccnnc5)cc4Cl)C3)ncc(Cl)c12 [Example 30, (R)—N-(1-(3-Amino-4-chloroisoxazolo[5,4-c]pyridin-7-yl)pyrrolidin-3-yl)-2-chloro-4-(pyridazin-4-yl)benzamide]
≤ 100 | Nc1noc2c(N3CC[C@@H](NC(=O)c4ccc(-c5cncc(CCO)c5)cc4Cl)C3)ncc(Cl)c12 [Example 31, (R)—N-(1-(3-Amino-4-chloroisoxazolo[5,4-c]pyridin-7-yl)pyrrolidin-3-yl)-2-chloro-4-(5-(2-hydroxyethyl)pyridin-3-yl)benzamide]
